Data on 4 molecules can be found in US10604585B2, “Modulation of PTPRA to treat arthritis” (La Jolla Institute for Allergy & Immunology, priority 2014, dated 2020).

Series [1] concerns RA FLS. The series can be described thus: RA FLS induction of gene expression in response to TNF and IL-1β (qPCR, ELISA). It is filed as cell-based, human. The conditions noted are these: for TNF- and IL-1-induced production of CXCL10 / TNF- and IL-1-induced production of IL6 / TNF- and IL-1-induced production of MMP13: 50 ng/ml TNFα or 2 ng/ml IL-1β with inhibitor for 24 hr. How it is done:
FLS were obtained from the UCSD CTRI Biorepository. Each line was previously obtained from discarded synovial tissue of a different patient with RA at the time of synovectomy, as described previously (21). The diagnosis of RA conformed to American College of Rheumatology 1987 revised criteria(22). FLS were cultured in DMEM (Mediatech, Manassas, Va.) with 10% fetal bovine serum (FBS, Omega Scientific, Tarzana, Calif.), 2 mM L-glutamine, […] gentamicin, 100 units/ml of penicillin and […] streptomycin (Life Technologies, Carlsbad, Calif.) at 37° C. in a humidified 5% CO2 atmosphere. For all experiments, FLS were used between passages 4-10, and cells were synchronized in 0.1% FBS (serum-starvation media) for 48 hours prior to analysis or functional assays.
RNA was extracted using RNeasy Kits (Qiagen, Valencia, Calif.) or Trizol (Life Technologies). For lysis of FLS, adherent cells were first washed in PBS and then lysed in the culture plate. cDNA was synthesized using the SuperScript® III First-Strand Synthesis SuperMix (Life Technologies). qPCR was performed using a Roche Lightcycler 480 (Indianapolis, Ind.), with primer assays from SABiosciences/Qiagen. Reactions were measured in triplicate and data was normalized to the expression levels of the house-keeping gene glyceraldehyde 3-phosphate dehydrogenase (GAPDH) or RNA Polymerase II (RPII) (23).
(§1) FLS were treated with 2.5 uM PMO (Gene Tools, Philomath, OR) for 7 days. PMO was replaced in fresh culture medium after 3 days and in serum-starvation medium after 5 days.
Secreted human IL-6 and chemokine (C-X-C motif) ligand 10 (CXCL10) were measured using ELISAs from Biolegend (San Diego, Calif.).
Background: In qPCR the cycle at which signal appears reflects the starting amount.

In series [2] the test system is RA FLS. The series can be described thus: Death of RA FLS on treatment with FAK inhibitor. It is filed as cell-based, human. As to conditions: at the concentrations used in these experiments.
Series [3] relates to RA FLS. Nature of the series: Western blotting of RA FLS lysates (SRC, FAK, MAPK, AKT, NF-κB signaling). Type of series: cell-based, human. The conditions noted are these: 10 μM inhibitor vs DMSO. (In general: In western blotting, separated proteins are transferred to a membrane and probed.)
In series [4] the test system is RA FLS. Nature of the series: Survival and apoptosis assay (Annexin V / PI, FACS). Type of series: cell-based, human. The conditions noted are these: sera-starvation media or in the presence of PDGF (50 ng/ml, 24 hr); FIG. 2C. How it is done:
as §1
Following treatment with PMO, RA FLS were washed and incubated for an additional 24 hoursr in serum-starvation media. Adherent and non-adherent cells were collected and stained with Annexin V-Alexa Fluor® 647 and propidium iodide (PI) according to the manufacturer's instructions (Biolegend, San Diego, Calif.). Cell fluorescence was assessed by FACS using a BD LSR-II (BD Biosciences), and counts and percentages of live (Annexin V−PI−), early apoptotic (Annexin V+PI−), or late apoptotic/necrotic (Annexin V+PI+) cells were obtained. Data was analyzed for statistical significance using the Chi-square test for independence.

In series [5] the test system is RA FLS. The series can be described thus: Spreading and adhesion assay on fibronectin-coated coverslips. It is filed as cell-based, human. As to conditions: 5% FBS, FIG. 2D. How it is done:
as §1
Following treatment with PMO, equal numbers of live RA FLS were re-suspended in FLS medium containing 5% FBS and allowed to adhere onto coverslips coated with 20 μg/ml fibronectin (FN) at 37° C. for 15, 30 and 60 minutes. Cells were fixed in 4% para-formaldehyde for 5 minutes, permeabilized in 0.2% Triton X-100 for 2 minutes, and stained with 5 U/ml Alexa Fluor® 568 (AF 568)-conjugated phalloidin and 2 μg/ml Hoechst for 20 minutes (Life Technologies). Samples were imaged with an Olympus FV10i Laser Scanning Confocal Microscope (Olympus, Center Valley, Pa.). Using the FV10i acquisition software, each coverslip was separated into four nine-paneled mega-images. Each panel (1024×1024) was acquired with a 10× objective and then stitched together, through a 10% overlap, with the Olympus FluoView 1000 imaging software. Total cell number and cell areas for each panel were calculated using Image Pro Analyzer software (Media Cybernetics, Rockville, Md.).

Series [6] concerns RA FLS. Nature of the series: Western blotting of RA FLS lysates (SRC, FAK, MAPK, AKT, NF-κB signaling). Type of series: cell-based, human. How it is done:
as §1
Adherent cells were washed in PBS and then lysed in the culture plate in RIPA buffer (25 mM Tris-HCl pH 7.6, 150 mM NaCl, 1% NP-40, 1% sodium deoxycholate, 0.1% SDS) containing 1 mM phenylmethanesulfonyl fluoride, 10 ng/ml aprotinin, 10 μg/ml leupeptin, 10 μg/ml soybean trypsin inhibitor, 10 mM sodium orthovanadate, 5 mM sodium fluoride and 2 mM sodium pyrophosphate. Protein concentration of cell lysates was determined using the Pierce BCA Protein Assay Kit (Thermo Scientific, Rockford, Ill.).

Series [7] concerns RA FLS. The conditions noted are these: reference (40); cited from earlier work.
[8] abbreviates: 2.5 μM PTPRA_2 PMO for 7 d, then 50 ng/ml TNF or 2 ng/ml IL-1 for 24 hr, FIGS. 8A-8B.
Setting [9] is: 2.5 μM PMO for 7 d, then 2 ng/ml IL-1β for 24 hr, vs Ctl PMO, FIG. 1D.
[10] abbreviates: 2.5 μM PMO for 7 d, then 50 ng/ml TNF for 24 hr, vs Ctl PMO, FIG. 1D.
[11] abbreviates: RA FLS, 2.5 μM PMO for 7 d, FIG. 1D.
The mark [12] stands for this setting: RA FLS, RPTPα knockdown with PMO, FIG. 3B, 3C.
Setting [13] is: basal conditions, PTPRA knockdown.
Setting [14] is: unstimulated PMO-treated RA FLS, FIG. 3D.

On to `CS(=O)(=O)c1cccc(CNc2nc(Nc3ccc4c(c3)CCC(=O)N4)ncc2C(F)(F)F)c1` [PF573228], for which, in the series with RA FLS [1] (RA FLS, vs DMSO, qPCR, FIG. 4A), the “TNF- and IL-1-induced production of CXCL10” value was “significantly decreased”; the “TNF- and IL-1-induced production of IL6” value is “significantly decreased”; the “TNF- and IL-1-induced production of MMP13” value is listed as “significantly decreased”. The “death of RA FLS” value with RA FLS [2] is “does not cause death”. In the series with RA FLS [3] (50 ng/ml TNF or 2 ng/ml IL-1β for 30 min), the p38-T180/Y185 phosphorylation entry is “no effect”. The “TNF- and IL-1β-induced phosphorylation of JNK-T183/Y185” value in the series on RA FLS [3] (50 ng/ml TNF or 2 ng/ml IL-1β for 30 min, FIG. 4B) is “impaired”. Besides, in the series with RA FLS [3] (FIG. 4B), the FAK-Y397 phosphorylation entry is “impaired”.
For “second PTPRA-targeted PMO: second PTPRA-targeted PMO of a different sequence; probably SEQ ID NO:5, 5′ GTGTCTCATCTGAAATCAAGACAAC 3′ (assignment not stated) (morpholino, cell-permeable, chemistry not fully specified)”, in the series on RA FLS [1] (setting [8]), the “effect on CXCL10 (reduced production, protein in supernatants by ELISA)” value is on record as “confirmed” and the “effect on IL-6 (reduced production, protein in supernatants by ELISA)” value is listed as “confirmed”.
For the molecule “PTPRA PMO: cell-permeable antisense morpholino oligo (PMO) targeting PTPRA; probably SEQ ID NO:4, 5′ GACATTAAGGAATGCCTTACCCACA 3′ (assignment not stated) (morpholino, cell-permeable, chemistry not fully specified)”, in the series with RA FLS [1] (setting [9]), the “RA FLS production of CXCL10 in response to IL-1β” value is listed as “significantly reduced”, the “RA FLS production of IL6 in response to IL-1β” value was “significantly reduced”, the “RA FLS production of MMP3 in response to IL-1β” value is reported as “significantly reduced” and the “RA FLS production of MMP13 in response to IL-1β” value is “significantly reduced”. Moreover, in the series with RA FLS [1] (setting [10]), the “RA FLS production of CXCL10 in response to TNF” value was “significantly reduced” and the “RA FLS production of MMP13 in response to TNF” value is “significantly reduced”. Besides, in the series on RA FLS [1] (setting [11]), the “expression of IL-1β receptor (IL1R)” value is listed as “increased” and the “expression of TNF receptor (TNFRSF1A)” value is given as “no effect”. In addition, the “apoptosis compared to control-treated cells” value in the series with RA FLS [4] was “significantly increased”. The “spreading on fibronectin-coated coverslips” value in the series on RA FLS [5] (cell area after 15, 30 and 60 min) is “impaired spreading”. In addition, the “adherence of live cells to fibronectin-coated coverslips” value in the series on RA FLS [5] (cells per field after 15 min) was “less adherent”. Besides, the “TNF- and IL-1β stimulated phosphorylation of AKT-S473” value in the series with RA FLS [6] (RA FLS, PMO treatment, FIGS. 3B-3C) was “reduced”. In the series with RA FLS [6] (setting [12]), the “TNF- and IL-1β-stimulated phosphorylation of JNK (T183/Y185)” value is “impaired”; the “TNF- and IL-1β-stimulated phosphorylation of p38-T180/Y182” value is listed as “impaired”. The “phosphorylation of FAK-Y397” value in the series on RA FLS [6] (RA FLS, RPTPα knockdown with PMO, FIG. 3C) was “reduced”. In the series with RA FLS [6] (setting [13]), the “proteolytic processing of NFκB subunit p100 (ratio of p52:p100)” value is recorded as “unaffected” and the “proteolytic processing of NFκB subunit p105 (ratio of p50:p105)” value is on record as “unaffected”. In addition, in the series on RA FLS [6] (resting RA FLS, RPTPα knockdown with PMO, FIG. 3A), the “phosphorylation of SRC-Y527” value is “increased”. Moreover, in the series on RA FLS [6] (stimulation with TNF or IL-1β, FIG. 3B, 3C), the “levels of IκBα following 10 minutes post-stimulation, Ctl vs PTPRA PMO-treated cells” value was “similar”. In the series with RA FLS [6] (setting [14]), the “basal phosphorylation of IκB kinase (IKK)-αβ on Ser176/180” value is listed as “non-significant trend towards decreased” and the “basal phosphorylation of NFκB subunit p65 on Ser536” value is given as “non-significant trend towards decreased”. Besides, in the series on RA FLS [6] (unstimulated, PMO treatment), the “levels of IκBα protein in resting RA FLS” value is listed as “modest decrease”.
On to `NC1(c2ccc(-c3nc4ccn5c(=O)[nH]nc5c4cc3-c3ccccc3)cc2)CCC1` [MK2206, reference compound], for which, in the series on RA FLS [1] (RA FLS, 2 ng/ml IL-1β with inhibitor for 24 hr, vs DMSO, qPCR, FIG. 4A), the “IL-1β-induced expression of CXCL10” value is given as “increased”. Besides, in the series with RA FLS [1] (RA FLS, vs DMSO, qPCR, FIG. 4A), the “TNF- and IL-1-induced production of CXCL10” value is “did not dampen”; the “TNF- and IL-1-induced production of IL6” value was “increased”; the “TNF- and IL-1-induced production of MMP13” value is given as “did not dampen”. In addition, the “RA FLS migration and invasiveness” value with RA FLS [7] was “attenuate”.
